Laboratory results taken from PubChem BioAssay (NCI).
Values joined by “and” are separate entries in the source; they are usually repeats but may differ in a detail not shown here. Equal values may be shown once.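 Following 48 hours of exposure in 96-well plates, responses at five concentrations were used to interpolate endpoints linearly. At the GI50, growth is halved. TGI denotes the concentration required for complete inhibition of growth.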

Columns and labels:
Test in all cases: DTP human tumour cell line panel, 48 h
SK-OV-3 ovarian = test system: SK-OV-3 ovarian
MDA-MB-231 breast = test system: MDA-MB-231 breast
HCT-116 colon = test system: HCT-116 colon
NCI-H522 lung = test system: NCI-H522 lung
OVCAR-5 ovarian = test system: OVCAR-5 ovarian
HCT-15 colon = test system: HCT-15 colon
SNB-75 CNS = test system: SNB-75 CNS
UACC-62 melanoma = test system: UACC-62 melanoma

Row | SMILES | TGI (SK-OV-3 ovarian) | TGI (MDA-MB-231 breast) | TGI (HCT-116 colon) | TGI (NCI-H522 lung) | TGI (OVCAR-5 ovarian) | TGI (HCT-15 colon) | TGI (SNB-75 CNS) | TGI (UACC-62 melanoma) | GI50 (SK-OV-3 ovarian) | GI50 (MDA-MB-231 breast) | GI50 (HCT-116 colon) | GI50 (NCI-H522 lung) | GI50 (OVCAR-5 ovarian) | GI50 (HCT-15 colon) | GI50 (SNB-75 CNS) | GI50 (UACC-62 melanoma)
1 | OCCn1cnc2c(SCc3ccccc3)ncnc21 | > 100 µM | > 100 µM | > 100 µM | > 100 µM | > 100 µM | > 100 µM | > 100 µM | > 100 µM |  |  |  |  |  |  |  | 
2 | NC(=O)Nc1cc(-c2cccc(F)c2)sc1C(=O)N[C@H]1CCCNC1 | 1.69 µM and 3.17 µM | 2.82 µM and 2.33 µM | 6.14 µM and 2.85 µM | 4.87 µM and 2.23 µM | > 6.2 µM and 4.4 µM | > 7.18 µM and 10.7 µM | 1.01 µM and 1.07 µM | > 5.1 µM and 3.43 µM | 0.132 µM and 0.329 µM | 305 nM and 424 nM | 327 nM and 428 nM | 291 nM and 273 nM | 0.173 µM and 0.361 µM | 1300 nM and 1960 nM | 0.0316 µM and 0.102 µM | 388 nM and 353 nM
3 | CN(C)c1ccc(C(=NO)c2ccc(N(C)C)cc2)cc1 | > 100 µM | > 100 µM | > 100 µM | > 100 µM | > 100 µM | > 100 µM | 53.2 µM | > 100 µM | 3.57 µM | 4850 nM | 2530 nM | 1080 nM | 15.1 µM | 1640 nM | 3.33 µM | 2110 nM
4 | CC(=O)[O][Sn]([CH2]c1ccccc1)([CH2]c1ccccc1)[CH2]c1ccccc1 | > 10 µM | > 10 µM | > 10 µM | > 7.23 µM | > 10 µM | > 4.64 µM | > 5.68 µM | > 10 µM | > 10 µM | > 9020 nM | > 9180 nM | > 3860 nM | > 10 µM | 4250 nM | > 4.28 µM | > 10000 nM
5 | CCSc1nc(SCC)c2c(-c3ccc(OC)c(OC)c3)c(C#N)c(SCC)nc2n1 | > 100 µM | 42 µM | > 100 µM | > 100 µM | 47.7 µM | 61.2 µM |  | 43.4 µM | > 100 µM | 13000 nM | 30300 nM | 41100 nM | 18.8 µM | 24600 nM |  | 18500 nM
6 | Cc1cnc(CNC(=O)c2c(=O)c3ccc(N4CCCN(C)CC4)nc3n3c2sc2ccccc23)cn1 | 28.9 µM | 8.36 µM | 2.76 µM | 27.2 µM | 28.9 µM | 7.31 µM | 25.8 µM | 28.1 µM | 12.5 µM | 2790 nM | 806 nM | 5940 nM | 13.2 µM | 1030 nM | 9.55 µM | 7690 nM
7 | O=[N+]([O-])c1ccc(N=Nc2ccc(O)c3ccccc23)cc1 | 47.7 µM | 20.8 µM | 13.8 µM | 8.18 µM | 75.8 µM | > 100 µM | > 100 µM | 32.9 µM | 11.9 µM | 1430 nM | 2020 nM | 2230 nM | 14.4 µM | 3290 nM | 2.45 µM | 4760 nM
8 | Cc1ccc(-c2nc3nc(-c4ccccc4)nc(N4CCNCC4)c3o2)cc1 | 3.42 µM | 0.537 µM | 0.337 µM | 2.26 µM | 2.74 µM | 0.834 µM | 3.02 µM | 3.27 µM | 1.9 µM | 226 nM | 185 nM | 745 nM | 1.31 µM | 291 nM | 1.58 µM | 1740 nM
9 | COc1ccc(C2=CC(c3ccc(OC)cc3Br)N3C=CSC3=N2)cc1 (centres undefined) | 27 µM | 36.2 µM | 3.17 µM | 20.7 µM | 32.3 µM | 3.41 µM | 43.7 µM | 10.7 µM | 6.78 µM | 8320 nM | 1660 nM | 5220 nM | 12.4 µM | 1490 nM | 15.6 µM | 2790 nM
10 | COC(=N)c1c(N)[n+]([O-])c2ccc(F)cc2[n+]1[O-] | > 100 µM | > 100 µM | > 100 µM | > 100 µM | > 100 µM | > 100 µM | > 100 µM | > 100 µM | > 100 µM | > 100000 nM | > 100000 nM | 54700 nM | > 100 µM | > 100000 nM | 96.2 µM | > 100000 nM
11 | Cc1ccc(-c2csc(NC(=O)N3CCN(c4cc5c(cc4F)c(=O)c(C(=O)O)cn5C4CC4)CC3)n2)cc1 | 6.12 µM | 19.4 µM | > 100 µM | 2.15 µM | > 100 µM | > 100 µM | 9.55 µM | 6.29 µM | 1.35 µM | 1780 nM | 335 nM | 291 nM | 0.867 µM | 417 nM | 0.289 µM | 630 nM
12 | COc1cc(OC)c(C(=O)/C=C/c2cccc(C#N)c2)c(OC)c1 | > 50 µM | 8.08 µM | 1.62 µM | 2.94 µM | 7.95 µM | 3.02 µM | 5.62 µM | 4.92 µM | 1.82 µM | 2000 nM | 414 nM | 992 nM | 2.26 µM | 853 nM | 1.31 µM | 1220 nM
13 | O=[N+]([O-])c1ccc(N2CCC(CCCC3CCN(c4ccc([N+](=O)[O-])cc4[N+](=O)[O-])CC3)CC2)c([N+](=O)[O-])c1 | 37.5 µM | 36 µM | > 100 µM | 42.8 µM | 45.7 µM | 41.6 µM | 32.8 µM | 24.4 µM |  |  |  |  |  |  |  | 
14 | COc1cc(/C=C/C(=O)c2ccc(F)cc2)ccc1OCCCN1CCN(CC(=O)Nc2ccc(Cl)cc2C(=O)c2ccccc2Cl)CC1 | 44.2 µM | 27.1 µM | 11.1 µM | 33.7 µM | > 100 µM | 19.5 µM | 34.1 µM | 22.9 µM | 17.4 µM | 11600 nM | 2230 nM | 14400 nM | 13.4 µM | 4090 nM | 6.05 µM | 10400 nM
15 | O=[N+]([O-])c1cc(Cl)cnc1Br | 22.4 µM | 12.2 µM | 24 µM |  | 9.48 µM | 7.11 µM |  | 4.9 µM |  |  |  |  |  |  |  | 
16 | CN(C)C(=O)c1cnc2oc3ccc(O)cc3c2c1-c1ccccc1 | > 25 µM |  | > 25 µM | > 25 µM | > 25 µM | > 25 µM | > 25 µM |  | 24.6 µM |  | > 25000 nM | > 25000 nM | 6.94 µM | > 25000 nM | 11.7 µM | 
